Numbers after ± are expanded uncertainties.
Test: Solid-liquid equilibrium temperature
Details: Crystal

| Compound | Solid-liquid equilibrium temperature (100000 kPa) [K] | Solid-liquid equilibrium temperature (200000 kPa) [K] | Solid-liquid equilibrium temperature (300000 kPa) [K] | Solid-liquid equilibrium temperature (400000 kPa) [K] | Solid-liquid equilibrium temperature (500000 kPa) [K] | Solid-liquid equilibrium temperature (600000 kPa) [K] | Solid-liquid equilibrium temperature (700000 kPa) [K] | Solid-liquid equilibrium temperature (800000 kPa) [K] | Solid-liquid equilibrium temperature (900000 kPa) [K] | Solid-liquid equilibrium temperature (1000000 kPa) [K] | Solid-liquid equilibrium temperature (1500000 kPa) [K] | Solid-liquid equilibrium temperature (2000000 kPa) [K] | Solid-liquid equilibrium temperature (2500000 kPa) [K] | Solid-liquid equilibrium temperature (3000000 kPa) [K] | Solid-liquid equilibrium temperature (3500000 kPa) [K] |
| --- | --- | --- | --- | --- | --- | --- | --- | --- | --- | --- | --- | --- | --- | --- | --- |
| c1ccccc1 [benzene] | 306.44 ± 1.6 | 329.93 ± 1.8 | 351.25 ± 2 | 370.85 ± 2.2 | 389.07 ± 2.3 | 406.15 ± 2.5 | 422.25 ± 2.6 | 437.52 ± 2.8 | 452.06 ± 2.9 | 465.96 ± 3.1 | 538.73 ± 10 | 584.85 ± 10 | 625.73 ± 10 | 663.67 ± 10 | – |
| Brc1ccccc1 [bromobenzene] | 259.05 ± 1.3 | 276.45 ± 1.5 | 292.45 ± 1.7 | 310.05 ± 1.8 | 322.55 ± 1.9 | 336.15 ± 2 | 349.25 ± 2.2 | 361.85 ± 2.3 | 374.75 ± 2.4 | 382.85 ± 10 | 430.05 ± 10 | 473.67 ± 10 | 514.22 ± 10 | 553.94 ± 10 | 587.21 ± 10 |
| Clc1ccccc1 [chlorobenzene] | 246.4 ± 1.2 | 263.03 ± 1.4 | 273.46 ± 1.5 | 288.44 ± 1.7 | 301.03 ± 1.8 | 315.62 ± 1.9 | 325.56 ± 2 | 336.87 ± 2.1 | 348.81 ± 2.2 | 354.76 ± 10 | 403.44 ± 10 | 440.81 ± 10 | 473.28 ± 10 | 503.63 ± 10 | 530.87 ± 10 |
| O=[N+]([O-])c1ccccc1 [nitrobenzene] | 299.74 ± 1.5 | 320.77 ± 1.7 | 340.02 ± 1.9 | 360.41 ± 2.1 | 378.61 ± 2.3 | 395.9 ± 2.4 | 412.3 ± 2.6 | 427.24 ± 2.7 | 442.98 ± 2.9 | 462.61 ± 10 | 516.38 ± 10 | 565.62 ± 10 | 595.88 ± 10 | 614.38 ± 10 | – |

Reference: the NIST ThermoML archive (doi:10.1021/je700276z)
